Assay results published in ChEMBL document CHEMBL1130146, “Fused pyrrolo[2,3-c]carbazol-6-ones: novel immunostimulants that enhance human interferon-gamma activity” (J Med Chem, 1997).

Legend:
[1] = target: Protein kinase C (PKC); assay: Inhibition of protein kinase C; type: protein assay, Rattus norvegicus
[2] = test system: THP-1; assay: Compound (2 uM) was screened for potentiation of IFN-gamma (0 units/mL)-induced expression of HLA-DR in THP-1 cells; type: functional, Homo sapiens
[3] = test system: THP-1; assay: Compound (2 uM) was screened for potentiation of IFN-gamma (100 units/mL)-induced expression of HLA-DR in THP-1 cells; type: functional, Homo sapiens
[4] = test system: THP-1; assay: Compound (0 uM) was screened for potentiation of IFN-gamma (0 units/mL)-induced expression of HLA-DR in THP-1 cells; type: functional, Homo sapiens
[5] = test system: THP-1; assay: Compound (0 uM) was screened for potentiation of IFN-gamma (100 units/mL)-induced expression of HLA-DR in THP-1 cells; type: functional, Homo sapiens

| Compound | IC50 [1] | Enhancement [2] | Enhancement [3] | Enhancement [4] | Enhancement [5] |
| --- | --- | --- | --- | --- | --- |
| O=C1Cc2c(c3c4ccccc4oc3c3[nH]c4ccccc4c23)N1 | > 10 µM | 0% | 108% | 0% | 100% |
| O=C1Cc2c(c3c4ccccc4sc3c3[nH]c4ccccc4c23)N1 | > 10 µM | 0% | 153% | 0% | 100% |
| O=C1Cc2c(c3c(c4[nH]c5ccccc5c24)Cc2ccccc2-3)N1 | > 10 µM | 0% | 160% | 0% | 100% |
| O=C1Cc2c(c3c4ccccc4[nH]c3c3[nH]c4ccccc4c23)N1 | > 10 µM | 0% | 130% | 0% | 100% |
